From ChEMBL document CHEMBL1687697 (ACS Med Chem Lett, 2010)
The source made the active and inactive calls. The calls are words filed in the database; no cut-off is given here.

Experiments:
[1] = molecular target: Signal transducer and activator of transcription 3 (Homo sapiens) (UniProt P40763); assay: Inhibition of STAT3 in human HeLa cells at 5 uM after 24 hrs by luciferase reporter gene assay; format: cell-based
[2] = molecular target: Signal transducer and activator of transcription 3 (Homo sapiens) (UniProt P40763); assay: Inhibition of STAT3 phosphorylation at Tyr705 in human DU145 cells after 24 hrs by Western blot analysis; format: cell-based; conditions: DU-145
[3] = molecular target: Signal transducer and activator of transcription 3 (Homo sapiens) (UniProt P40763); assay: Inhibition of STAT3 phosphorylation Ser727 in human DU145 cells after 24 hrs by Western blot analysis; format: cell-based; conditions: DU-145
[4] = molecular target: Signal transducer and activator of transcription 1-alpha/beta (Homo sapiens) (UniProt P42224); assay: Inhibition of STAT1 phosphorylation at Tyr701 after 2 hrs by Western blot analysis
Signal transducer and activator of transcription 1-alpha/beta (Homo sapiens), sequence (P42224 whole entry): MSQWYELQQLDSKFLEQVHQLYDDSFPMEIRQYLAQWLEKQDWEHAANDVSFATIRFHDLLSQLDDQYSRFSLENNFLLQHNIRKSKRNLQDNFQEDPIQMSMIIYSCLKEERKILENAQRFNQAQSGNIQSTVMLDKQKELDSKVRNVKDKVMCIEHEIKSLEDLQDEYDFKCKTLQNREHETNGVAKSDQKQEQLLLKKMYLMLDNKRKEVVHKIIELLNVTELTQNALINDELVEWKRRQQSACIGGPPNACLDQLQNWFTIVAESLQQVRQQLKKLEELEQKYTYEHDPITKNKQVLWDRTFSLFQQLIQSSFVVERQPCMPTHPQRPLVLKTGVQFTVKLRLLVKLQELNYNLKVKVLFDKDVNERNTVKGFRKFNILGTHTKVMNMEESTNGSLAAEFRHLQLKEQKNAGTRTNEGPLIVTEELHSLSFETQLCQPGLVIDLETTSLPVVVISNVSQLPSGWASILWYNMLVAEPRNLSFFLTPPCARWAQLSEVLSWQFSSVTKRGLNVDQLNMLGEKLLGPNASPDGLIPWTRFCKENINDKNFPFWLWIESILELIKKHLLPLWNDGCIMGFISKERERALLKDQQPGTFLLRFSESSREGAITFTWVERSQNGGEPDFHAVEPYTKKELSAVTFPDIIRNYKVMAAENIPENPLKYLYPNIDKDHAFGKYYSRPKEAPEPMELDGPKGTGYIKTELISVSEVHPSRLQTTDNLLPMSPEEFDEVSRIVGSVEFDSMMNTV

[5] = molecular target: Signal transducer and activator of transcription 5A (Homo sapiens) (UniProt P42229); assay: Inhibition of STAT5 phosphorylation at Tyr694 after 2 hrs by Western blot analysis
Signal transducer and activator of transcription 5A (Homo sapiens), sequence (P42229 whole entry): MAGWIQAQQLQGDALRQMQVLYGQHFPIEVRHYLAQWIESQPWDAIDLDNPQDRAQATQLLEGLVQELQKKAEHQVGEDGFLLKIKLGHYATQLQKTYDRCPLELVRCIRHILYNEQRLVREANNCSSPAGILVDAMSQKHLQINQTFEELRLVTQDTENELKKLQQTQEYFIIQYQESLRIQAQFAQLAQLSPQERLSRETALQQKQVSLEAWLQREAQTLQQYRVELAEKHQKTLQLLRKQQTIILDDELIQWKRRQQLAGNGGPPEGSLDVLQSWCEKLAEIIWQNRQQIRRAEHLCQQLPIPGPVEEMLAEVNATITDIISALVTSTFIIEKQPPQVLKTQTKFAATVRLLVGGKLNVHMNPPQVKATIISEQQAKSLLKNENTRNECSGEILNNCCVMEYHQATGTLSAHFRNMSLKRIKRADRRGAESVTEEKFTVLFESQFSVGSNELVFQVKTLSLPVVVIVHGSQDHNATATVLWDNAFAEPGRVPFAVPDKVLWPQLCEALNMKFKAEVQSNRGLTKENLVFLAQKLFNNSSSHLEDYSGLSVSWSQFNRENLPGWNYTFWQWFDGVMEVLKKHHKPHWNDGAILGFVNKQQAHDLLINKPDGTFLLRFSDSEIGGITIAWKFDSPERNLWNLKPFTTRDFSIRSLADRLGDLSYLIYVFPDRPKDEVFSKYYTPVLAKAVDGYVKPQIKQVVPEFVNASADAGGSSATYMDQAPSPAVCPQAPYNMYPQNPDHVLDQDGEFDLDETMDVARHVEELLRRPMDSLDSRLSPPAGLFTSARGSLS

DU-145 [6] = assay: Effect on JAK1 protein level in human DU145 cells at 0.1 to 2 uM after 2 hrs by Western blot analysis; format: functional, cell-based
DU-145 [7] = assay: Effect on JAK1 protein level in human DU145 cells at 0.1 to 2 uM after 24 hrs by Western blot analysis; format: functional, cell-based
DU-145 [8] = assay: Effect on phosphorylated JAK1 protein level in human DU145 cells at 0.1 to 2 uM after 2 hrs by Western blot analysis; format: functional, cell-based
DU-145 [9] = assay: Effect on phosphorylated JAK1 protein level in human DU145 cells at 0.1 to 2 uM after 24 hrs by Western blot analysis; format: functional, cell-based
DU-145 [10] = assay: Effect on JAK2 protein level in human DU145 cells at 0.1 to 2 uM after 2 hrs by Western blot analysis; format: functional, cell-based
DU-145 [11] = assay: Effect on JAK2 protein level in human DU145 cells at 0.1 to 2 uM after 24 hrs by Western blot analysis; format: functional, cell-based
DU-145 [12] = assay: Effect on phosphorylated-JAK2 protein level in human DU145 cells at 0.1 to 2 uM after 2 hrs by Western blot analysis; format: functional, cell-based
DU-145 [13] = assay: Effect on phosphorylated-JAK2 protein level in human DU145 cells at 0.1 to 2 uM after 24 hrs by Western blot analysis; format: functional, cell-based
DU-145 [14] = assay: Effect on Src protein level in human DU145 cells at 0.1 to 2 uM after 2 hrs by Western blot analysis; format: functional, cell-based
DU-145 [15] = assay: Effect on Src protein level in human DU145 cells at 0.1 to 2 uM after 24 hrs by Western blot analysis; format: functional, cell-based
DU-145 [16] = assay: Effect on Tyr416 phosphorylated-Src protein level in human DU145 cells at 0.1 to 2 uM after 2 hrs by Western blot analysis; format: functional, cell-based
DU-145 [17] = assay: Effect on Tyr416 phosphorylated-Src protein level in human DU145 cells at 0.1 to 2 uM after 24 hrs by Western blot analysis; format: functional, cell-based
DU-145 [18] = assay: Effect on […] phosphorylated-Src protein level in human DU145 cells at 0.1 to 2 uM after 2 hrs by Western blot analysis; format: functional, cell-based
DU-145 [19] = assay: Effect on Tyr527 phosphorylated-Src protein level in human DU145 cells at 0.1 to 2 uM after 24 hrs by Western blot analysis; format: functional, cell-based
[20] = molecular target: Signal transducer and activator of transcription 3 (Homo sapiens) (UniProt P40763); assay: Inhibition of STAT3 nuclear translocation in EGF stimulated human DU145 cells at 1 uM administered before 100 ng/ml EGF stimulation measured after 2 hrs by confocal laser microscopy; format: cell-based; conditions: DU-145
[21] = molecular target: Signal transducer and activator of transcription 3 (Homo sapiens) (UniProt P40763); assay: Inhibition of STAT3 interaction with DNA binding site in human DU145 cells at 05 to 10 uM after 2 hrs by EMSA; format: cell-based; conditions: DU-145
DU-145 [22] = assay: Decrease in cyclin D1 protein level in human DU145 cells at 0.1 to 2 uM after 2 hrs by Western blot analysis; format: functional, cell-based
DU-145 [23] = assay: Decrease in c-Myc protein level in human DU145 cells at 0.1 to 2 uM after 2 hrs by Western blot analysis; format: functional, cell-based
DU-145 [24] = assay: Decrease in Bcl-Xl protein level in human DU145 cells at 0.1 to 2 uM after 2 hrs by Western blot analysis; format: functional, cell-based
DU-145 [25] = assay: Downregulation of Mcl-1 protein in human DU145 cells at 0.1 to 2 uM after 2 hrs by Western blot analysis; format: functional, cell-based
HeLa = assay: Antiproliferative activity against human HeLa cells after 72 hrs by MTT assay; format: functional, cell-based
A549 = assay: Antiproliferative activity against human A549 cells after 72 hrs by MTT assay; format: functional, cell-based; conditions: A549, 72 h
DU-145 [26] = assay: Antiproliferative activity against human DU145 cells after 72 hrs by MTT assay; format: functional, cell-based; conditions: DU-145, 72 h
HT-29 = assay: Antiproliferative activity against human HT-29 cells after 72 hrs by MTT assay; format: functional, cell-based; conditions: HT-29, 72 h
A-431 = assay: Antiproliferative activity against human A431 cells after 72 hrs by MTT assay; format: functional, cell-based; conditions: A-431, 72 h
PC-3 = assay: Antiproliferative activity against human PC3 cells after 72 hrs by MTT assay; format: functional, cell-based; conditions: PC-3, 72 h
DU-145 [27] = assay: Growth inhibition of human DU145 cells assessed as inhibition of colony formation after 11 to 12 days by crystal violet staining based microscopic analysis; format: functional, cell-based
DU-145 [28] = assay: Cell cycle arrest in human DU145 cells assessed as accumulation in G0/G1 phase at 0.2 uM after 24 hrs by FACS flow cytometry; format: functional
DU-145 [29] = assay: Cell cycle arrest in human DU145 cells assessed as accumulation in S phase at 0.2 uM after 24 hrs by FACS flow cytometry; format: functional
DU-145 [30] = assay: Cell cycle arrest in human DU145 cells assessed as accumulation in G2/M phase at 0.2 uM after 24 hrs by FACS flow cytometry; format: functional
DU-145 [31] = assay: Cell cycle arrest in human DU145 cells assessed as accumulation in G0/G1 phase at 0.5 uM after 24 hrs by FACS flow cytometry; format: functional

Signal transducer and activator of transcription 3 (Homo sapiens), sequence (P40763 whole entry): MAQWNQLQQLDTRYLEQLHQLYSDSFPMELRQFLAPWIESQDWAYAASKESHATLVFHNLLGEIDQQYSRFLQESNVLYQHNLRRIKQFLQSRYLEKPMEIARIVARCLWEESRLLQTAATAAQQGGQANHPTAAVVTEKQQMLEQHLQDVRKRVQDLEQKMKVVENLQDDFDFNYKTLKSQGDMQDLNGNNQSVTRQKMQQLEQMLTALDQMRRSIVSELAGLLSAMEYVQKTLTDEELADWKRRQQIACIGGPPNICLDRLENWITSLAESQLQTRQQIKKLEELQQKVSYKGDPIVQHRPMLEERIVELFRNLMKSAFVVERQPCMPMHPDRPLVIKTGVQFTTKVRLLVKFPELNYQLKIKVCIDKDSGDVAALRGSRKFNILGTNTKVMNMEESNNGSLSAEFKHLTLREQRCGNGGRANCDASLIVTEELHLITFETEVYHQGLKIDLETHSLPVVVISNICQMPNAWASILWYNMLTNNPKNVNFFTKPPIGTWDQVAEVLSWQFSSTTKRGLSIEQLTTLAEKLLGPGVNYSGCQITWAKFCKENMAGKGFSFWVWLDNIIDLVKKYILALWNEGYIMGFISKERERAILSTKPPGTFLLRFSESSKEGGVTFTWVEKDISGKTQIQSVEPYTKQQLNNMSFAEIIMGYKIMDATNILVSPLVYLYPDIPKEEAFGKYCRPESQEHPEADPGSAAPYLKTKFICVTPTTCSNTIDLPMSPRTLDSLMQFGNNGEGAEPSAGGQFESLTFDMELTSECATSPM

inhibition [1]: Active | inhibition [2]: Dose-dependent effect | inhibition [3]: inactive | inhibition [4]: inactive | inhibition [5]: inactive | inhibition [20]: Active | inhibition [21]: Active | IC50 (HeLa): 1400 nM | IC50 (A549): 3000 nM | IC50 (DU-145 [26]): 700 nM | IC50 (HT-29): 7200 nM | IC50 (A-431): 8800 nM | IC50 (PC-3): 11700 nM | IC50 (DU-145 [27]): 700 nM
SMILES: O=C(Nc1ccc([N+](=O)[O-])cc1Cl)c1cc(Cl)ccc1O [NICLOSAMIDE]
Activity (DU-145 [6]): inactive | Activity (DU-145 [7]): inactive | Activity (DU-145 [8]): inactive | Activity (DU-145 [9]): inactive | Activity (DU-145 [10]): inactive | Activity (DU-145 [11]): inactive | Activity (DU-145 [12]): inactive | Activity (DU-145 [13]): inactive | Activity (DU-145 [14]): inactive | Activity (DU-145 [15]): inactive | Activity (DU-145 [16]): inactive | Activity (DU-145 [17]): inactive | Activity (DU-145 [18]): inactive | Activity (DU-145 [19]): inactive | Activity (DU-145 [22]): Active | Activity (DU-145 [23]): Active | Activity (DU-145 [24]): Active | Activity (DU-145 [25]): Active | Activity (DU-145 [28]): 48.4% | Activity (DU-145 [29]): 38.4% | Activity (DU-145 [30]): 13.11% | Activity (DU-145 [31]): 57.4%
